{
  "source": "patent EP4050002A1",
  "about": "“ANTI-PROLIFERATIVE AGENTS” (First Health Pharmaceuticals B.V., priority 2021, dated 2022)",
  "key": {"[1]": {"experiment": "Pharmacokinetic studies, single administration", "format": "in vivo, male Swiss albino mice", "conditions": "for MRT last: read-out: MRT0-last", "description": "(§1) The pharmacokinetic study was performed in male Swiss albino mice from Hylasco Biotechnology Pvt. Ltd. (A Charles River technology Licensee). The tissue distribution study was performed in male Swiss albino mice and in male FOXN1^nu/nu nude mice (Envigo spa). The efficacy study was performed in male FOXN1^nu/nu nude mice.\nSingle intravenous administration studies were done as follows: • 1. Compound 5 • dose: 1 mg/kg • dose concentration: 0.2 mg/ml in 10% DMSO and 10% Solutol in WFI (90%). • volume: 5 ml/kg • blood withdrawal time points: 0.083, 0.25, 0.5, 1, 2, 4, 8, 24 hours post administration • 2. Compound 3 • […] • dose concentration: 0.2 mg/ml in 10% DMSO and 10% Solutol in WFI (90%). • volume: 5 ml/kg • blood withdrawal time points: 0.083, 0.25, 0.5, 1, 2, 4, 8, 24 hours post administration\n(§2) Single intraperitoneal administration studies were done as follows: • 1. Compound 5 • dose 1: 45 mg/kg • dose concentration: […] in 10% DMSO, 5% TWEEN 80 and WFI (85%) • volume: 5 ml/kg • blood withdrawal time points: 0.25, 0.5, 1, 2, 4, 6, 8, 24 hours post administration • brain, liver and lungs collected at 4, 8 and 24 hours • 2. Compound 5 • dose 2: 10 mg/kg • dose concentration: 2 mg/ml in 10% DMSO, 10% Solutol and WFI (90%). • volume: 5 ml/kg • blood withdrawal time points: 0.25, 0.5, 1, 2, 4, 6, 8, 24 hours post administration\nSingle oral administration studies were done as follows: • 1. Compound 5 • dose: 45 mg/kg • dose concentration: 4.5 mg/ml in Labrasol (30%), Capmul PG 8 (30%), Cremophor EL (10%) and PEG (30%) • volume given by oral gavage: 10 ml/Kg • blood withdrawal time points: 0.08, 0.25, 0.5, 1, 2, 4, 6, 8, 24 hours post administration\nSingle intra tracheal administration studies were done as follows: • 1. Compound 5 • dose: 0.08 mg/kg • dose concentration: 0.04 mg/ml in DMSO (1%) and WFI (99%) • volume given by intra tracheal route: 2 ml/Kg • blood withdrawal time points: 0.03, 0.08, 0.17, 0.25, 0.75, 1.5, 2, 4 hours post administration\nAnimals were observed up to 24 hours after dose administration for behavioral or physical alterations. For blood withdrawal, mice were anesthetized using gaseous anesthesia and 0.2 to 0.3 ml of blood samples were collected in Li-Heparin containing tubes at the time points above indicated, stored on ice, centrifuged within 15 minutes to separate plasma at 1540 ref (5000 rpm) at 4°C for 10 minutes; plasma was separated and transferred to new tubes.\n(§3) Selected organs were collected at 4, 8 and 24 hours for drug distribution studies: mice were anesthetized and intra-cardiac whole body perfusion was performed using chilled saline. Separated tissues were immediately washed, dried, weighed and frozen at -80±10°C until homogenization. The levels of compound in the tissues and in plasma were quantified by LC-MS/MS, using as instrument Q-TRAP 500, with a column Phenomenex, KINETEX 5µ EVO C18 50 mm X 4.5 mm (Phenomenex). The mobile phase employed was composed as follows: aqueous reservoir, 10 mM Ammonium Acetate with 0.1% Formic acid in MilliQ water; organic reservoir, Acetonitrile:Methanol (50:50, v/v); flow rate 1 ml/min; injection volume 10µl; rinsing solution, Acetonitrile:Methanol:Water (20:60:20, v/v).\nCalibration Curve & Quality Control samples preparation: 0.5 µl of calibration curve standards were diluted 25X with blank matrix (i.e. Acetonitrile:Methanol (1:1, v/v)) and precipitated with 200 µl of acetonitrile containing internal standard at 200 ng/ml concentration, then vortexed for 5 min at 850 rpm, centrifuged at 4000 rpm for 5 min at 4°C, from this 110 µl of supernatant was separated and diluted with 130 µl of methanol:water, (1:1 v/v) .\nTelmisartan (200 ng/ml) was used as internal standard. Telmisartan was spiked in 100% acetonitrile to a final concentration of 200 ng/ml. […]"}, "[2]": {"experiment": "Tissue distribution after single I.P. administration", "format": "in vivo, male Swiss Albino Mice", "description": "as §1, §2, §3\nDistribution to tissues is expressed as ratio between the compound level in tissues (ng compounds/ mg tissue) divided by the compound levels in blood (ng/ml), considering 1 ml of blood equal to […]."}, "[3]": {"conditions": "I.P. 1, 45 mg/kg, TWEEN-based vehicle"}, "[4]": {"conditions": "I.P. 2, 10 mg/kg, Solutol-based vehicle"}, "[5]": {"conditions": "mouse, in vivo, iv, I.V., 1 mg/kg"}, "[6]": {"conditions": "mouse, plasma, ip, I.P. 1, 45 mg/kg, TWEEN-based vehicle"}, "[7]": {"conditions": "mouse, plasma, ip, I.P. 2, 10 mg/kg, Solutol-based vehicle"}, "[8]": {"conditions": "mouse, plasma, iv, I.V., 1 mg/kg"}, "[9]": {"conditions": "mouse, plasma, po, P.O., 45 mg/kg"}, "[10]": {"conditions": "mouse, plasma, I.T., 0.08 mg/kg"}, "[11]": {"conditions": "4 hours after single administration I.P. 45 mg/Kg"}, "[12]": {"conditions": "8 hours after single administration I.P. 45 mg/Kg"}, "[13]": {"conditions": "24 hours after single administration I.P. 45 mg/Kg"}},
  "note": "Read-outs that look alike come from different tables or passages of the source.",
  "data": [
    {"smiles": "CCCCc1cn(-c2ccc(-c3nnc(-c4ccccc4C(F)(F)F)o3)cc2)nn1", "note": "[Compound 5]", "values": [
      {"measurement": "AUCExtra", "setting": "[1]; [3]", "value": 14.86, "unit": "%"},
      {"measurement": "F", "setting": "[1]; [3]", "value": 136, "unit": "%"},
      {"measurement": "AUCExtra", "setting": "[1]; [4]", "value": 5.02, "unit": "%"},
      {"measurement": "F", "setting": "[1]; [4]", "value": 135, "unit": "%"},
      {"measurement": "AUCExtra", "setting": "[1]; I.T., 0.08 mg/kg", "value": 2.92, "unit": "%"},
      {"measurement": "AUCExtra", "setting": "[1]; I.V., 1 mg/kg", "value": 3.98, "unit": "%"},
      {"measurement": "AUCExtra", "setting": "[1]; P.O., 45 mg/kg", "value": 16.91, "unit": "%"},
      {"measurement": "F", "setting": "[1]; P.O., 45 mg/kg", "value": 95, "unit": "%"},
      {"measurement": "bioavailability", "setting": "[1]; mouse, in vivo, ip, intraperitoneal route, read-out: absolute bioavailability (F)", "value": "> 100", "unit": "%"},
      {"measurement": "Vd", "setting": "[1]; [5]", "value": 8.2, "unit": "L/kg"},
      {"measurement": "clearance", "setting": "[1]; [5]", "value": 40, "unit": "mL/min/kg"},
      {"measurement": "AUC(0-inf)", "setting": "[1]; [6]", "value": 25600, "unit": "ng·h/mL"},
      {"measurement": "AUC(0-t)", "setting": "[1]; [6]", "value": 21800, "unit": "ng·h/mL"},
      {"measurement": "Cmax", "setting": "[1]; [6]", "value": 3700, "unit": "ng/mL"},
      {"measurement": "Tmax", "setting": "[1]; [6]", "value": 2, "unit": "h"},
      {"measurement": "MRT last", "setting": "[1]; [6]", "value": 7.46, "unit": "h"},
      {"measurement": "AUC(0-inf)", "setting": "[1]; [7]", "value": 5630, "unit": "ng·h/mL"},
      {"measurement": "AUC(0-t)", "setting": "[1]; [7]", "value": 5350, "unit": "ng·h/mL"},
      {"measurement": "Cmax", "setting": "[1]; [7]", "value": 692, "unit": "ng/mL"},
      {"measurement": "Tmax", "setting": "[1]; [7]", "value": 2, "unit": "h"},
      {"measurement": "MRT last", "setting": "[1]; [7]", "value": 6.49, "unit": "h"},
      {"measurement": "AUC(0-inf)", "setting": "[1]; [8]", "value": 417, "unit": "ng·h/mL"},
      {"measurement": "AUC(0-t)", "setting": "[1]; [8]", "value": 400, "unit": "ng·h/mL"},
      {"measurement": "C0", "setting": "[1]; [8]", "value": 879, "unit": "ng/mL"},
      {"measurement": "half-life", "setting": "[1]; [8]", "value": 2.37, "unit": "h"},
      {"measurement": "MRT last", "setting": "[1]; [8]", "value": 1.09, "unit": "h"},
      {"measurement": "AUC(0-inf)", "setting": "[1]; [9]", "value": 17800, "unit": "ng·h/mL"},
      {"measurement": "AUC(0-t)", "setting": "[1]; [9]", "value": 14800, "unit": "ng·h/mL"},
      {"measurement": "Cmax", "setting": "[1]; [9]", "value": 1350, "unit": "ng/mL"},
      {"measurement": "Tmax", "setting": "[1]; [9]", "value": 4, "unit": "h"},
      {"measurement": "MRT last", "setting": "[1]; [9]", "value": 9.05, "unit": "h"},
      {"measurement": "AUC(0-inf)", "setting": "[1]; [10]", "value": 815, "unit": "ng·h/mL"},
      {"measurement": "AUC(0-t)", "setting": "[1]; [10]", "value": 791, "unit": "ng·h/mL"},
      {"measurement": "Cmax", "setting": "[1]; [10]", "value": 1950, "unit": "ng/mL"},
      {"measurement": "Tmax", "setting": "[1]; [10]", "value": 0.03, "unit": "h"},
      {"measurement": "MRT last", "setting": "[1]; [10]", "value": 0.72, "unit": "h"},
      {"measurement": "Liver to plasma", "setting": "[2]; [11]", "value": 11.2},
      {"measurement": "Plasma", "setting": "[2]; [11]", "value": 2171, "unit": "ng/mL"},
      {"measurement": "Liver to plasma", "setting": "[2]; [12]", "value": 9.2},
      {"measurement": "Plasma", "setting": "[2]; [12]", "value": 775, "unit": "ng/mL"},
      {"measurement": "Liver to plasma", "setting": "[2]; [13]", "value": 9.2},
      {"measurement": "Plasma", "setting": "[2]; [13]", "value": 273, "unit": "ng/mL"},
      {"measurement": "Kp at 4 h", "setting": "[2]; mouse, brain, ip, 4 hours after single administration I.P. 45 mg/Kg, read-out: Brain to plasma", "value": 2.4},
      {"measurement": "Kp at 8 h", "setting": "[2]; mouse, brain, ip, 8 hours after single administration I.P. 45 mg/Kg, read-out: Brain to plasma", "value": 2.1},
      {"measurement": "Kp at 24 h", "setting": "[2]; mouse, brain, ip, 24 hours after single administration I.P. 45 mg/Kg, read-out: Brain to plasma", "value": 1.75}
    ]}
  ]
}
